No end group written: not given here.
Tests used:
[1] = test system: wild-type leaves of Arabidopsis thaliana Col-0; test: Oxidative burst induced by elf18 peptides from phytopathogenic bacteria; format: cell-based; settings: Col-0 leaves; relative to E. coli elf18 positive control
[2] = test system: EFR Nb; test: Callose deposition, aniline blue staining, EFR Nb leaves; format: in vivo, Nicotiana benthamiana; settings: 100 nM peptide infiltrated, ~16 hours, data not shown
Method: A solution of either water, 100 nM elf18, or 100 nM flg22 was used to infiltrate leaves of 4-week old wild-type and EFR Nb. Size #3 leaf discs (n=8) were sampled after ˜16 hours and destained in methanol overnight. Discs were rinsed in water, then left to stain overnight in a solution of 0.05% aniline blue in 50 mM phosphate buffer pH 8.5. Callose deposition at the plant cell periphery could then be viewed under a fluorescence microscope.

[3] = test system: wild-type Nb; test: Oxidative burst, luminol-based assay, wild-type Nb leaf discs; format: cell-based, Nicotiana benthamiana; settings: 100 nM peptide
Method: (§1) To measure the production of reactive oxygen species (ROS) in leaf tissue, size #1 leaf discs (Nb; n=12, tomato; n=8) were floated overnight in water. Each disc was then transferred to a well containing an assay mix of luminol (200 μM) and peroxidase (20 μg/ml) in 100 μl water. Each well was then treated with either: assay mix, 100 nm elf18, or 100 nm flg22. Luminescence in a 96-well plate was subsequently measured using a Flash Varioskan luminometer.

[4] = test system: transgenic EFR potatoes (Desiree); test: Oxidative burst, luminol-based assay, transgenic EFR potatoes; format: cell-based, Solanum tuberosum; settings: 100 nm peptide; positive potato lines; data not shown
Method: as §1, with “tomato and potato;” for “tomato;”
Oxidative burst assays were also conducted with transgenic EFR potatoes (Desiree).

[5] = test system: wild-type Nb; test: Early and late defense marker gene expression by RT-PCR, wild-type Nb seedlings; format: in vivo, Nicotiana benthamiana; settings: 100 nM peptide, 0, 30, 60, 180 min
Method: (§2) Wild-type and #18 Nb were grown for one week on agar plates, then transferred to liquid culture and were grown for a further week. The expression of PAMP-induced genes was monitored over a time course. Seedlings were treated with 100 nM elf18 or flg22 for 0, 30, 60 or 180 minutes, and frozen in liquid nitrogen.
(§3) In brief: four elicited seedlings were thoroughly ground directly in the supplied extraction buffer in Eppendorf tubes using a pestle on an IKA RW 20 stirrer. Total RNAs were extracted using the Qiagen Rneasy Plant Mini kit. The quality of the extracted RNA was confirmed by running an ethidium bromide-stained agarose gel to reveal rRNAs. DNase treatment was performed using TURBO DNA-free kit (Ambion) and the concentration of total RNA was then measured using a Nanodrop. First strand cDNA synthesis was performed using SuperScript II Reverse Transcriptase (Invitrogen) in combination with Oligo(dT) prime on 2 μg of total RNA. One μl of cDNA was used in PCR under the following conditions: 95° C. 2 min; [95° C. 45 sec; 58° C. 45 sec; 55° C. 30 sec; 72° C. 1.5 min]×25; 72° C. 5 min. The genes used as defense markers were: CYP72D2 (cytochrome P450), FLS2 (receptor kinase for flg22), ACRE132 (putative RING finger protein) and WRKY22 (transcription factor). As loading control the constitutively expressed EF-1α housekeeping gene was also amplified.

[6] = test system: primary transformant tomato plants; test: Oxidative burst, luminol-based assay, AtEFR tomato primary transformants; format: cell-based, Solanum lycopersicum; settings: 100 nm peptide; ten positive tomato lines; data not shown
Method: as §1, with “tomato and potato;” for “tomato;”
The detection of an oxidative burst is a relatively simple and reliable assay for defense activation. Cumulative luminescence was recorded for each plant over a time course of 40 minutes. […] Several other transformants were unable to express functional AtEFR as they give very little response to elf18, yet are able to respond to flg22 elicitation (data not shown). Other transformants, perhaps due to old age, were unable to respond to elf18 or flg22 treatment (data not shown). The 10 positive lines appear to have acquired EF-Tu responsiveness in this assay. Therefore seeds were harvested to grow homozygous lines for use in further assays to confirm of these initial results.

[7] = test system: Wild-type Col plants; test: Seedling growth inhibition (fresh weight), Arabidopsis wild-type Col; format: in vivo, Arabidopsis thaliana; settings: 0.1-1000 nM peptide, one week
Method: (§4) Wild-type, #16 and #18 Nb as well as Col and efr Arabidopsis thaliana seedlings were grown for one week onMS 1% sucrose agar plates, then transferred to liquid culture and were grown for one week in a serial dilution or elf18 or flg22. Dilutions of 0.1, 1, 10, 100 and 1000 nM were used for all five plant lines. Seedlings (n=4) were blotted on absorbent paper and their fresh weight was measured.

[8] = test system: efr plants; test: Seedling growth inhibition (fresh weight), Arabidopsis efr; format: in vivo, Arabidopsis thaliana; settings: 0.1-1000 nM peptide, one week
Method: as §4

[9] = test system: EFR plants (#18 Nb); test: Early and late defense marker gene expression by RT-PCR, EFR Nb seedlings; format: in vivo, Nicotiana benthamiana; settings: 100 nM peptide, 0, 30, 60, 180 min
Method: as §2, §3

[10] = test system: EFR (#18) Nb plants; test: Oxidative burst, luminol-based assay, EFR transgenic Nb leaf discs; format: cell-based, Nicotiana benthamiana; settings: 100 nM peptide
Method: as §1

[11] = test system: EFR plants (Nb expressing transgenic AtEFR); test: Seedling growth inhibition (fresh weight), EFR Nb; format: in vivo, Nicotiana benthamiana; settings: 0.1-1000 nM peptide, one week
Method: as §4

[12] = test system: Wild-type Nb plants; test: Seedling growth inhibition (fresh weight), wild-type Nb; format: in vivo, Nicotiana benthamiana; settings: 0.1-1000 nM peptide, one week
Method: as §4

Substance | eliciting activity (oxidative burst) [1] | callose deposition [2] | release of reactive oxygen species (luminescence) [3] | burst of ROS [4] | defense marker gene induction [5] | burst of ROS (cumulative luminescence over 40 minutes) [6] | seedling growth inhibition (fresh weight) [7] | seedling growth inhibition (fresh weight) [8] | defense marker gene induction [9] | release of reactive oxygen species (luminescence) [10] | seedling growth inhibition (fresh weight) [11] | seedling growth inhibition (fresh weight) [12]
elf18 Pseudomonas syringae pv. syringae DC3000: synthetic elf18 peptide derived from EF-Tu of Pseudomonas syringae DC3000 (pv. tomato per b37) (MAKEKFDRSLPHCNVGTI; ends and bridges not checked) | very low eliciting activity |  |  |  |  |  |  |  |  |  |  | 
elf18 Xanthomonas campestris pv campestris 8004 and B100: synthetic elf18 peptide derived from EF-Tu of Xanthomonas campestris pv. campestris 8004 and B100 (MARAKFLREKLHVNVGTI; Xanthomonas campestris pv. campestris 8004) | very low eliciting activity |  |  |  |  |  |  |  |  |  |  | 
elf18: EF-Tu epitope elf18: region of 18 amino-acids at the N-acetylated terminus of eubacterial EF-Tu recognized by EFR (Ac-MARAKFLREKLHVNVGTI) |  | stronger response | never revealed a burst of ROS | considerable burst of ROS | unable to elicit a significant amount of expression | considerable burst of ROS | decreasing growth as elf18 concentration increases | insensitive | marker gene expression which is at least as strong as under flg22 treatment | peak of luminescence corresponding to a burst of ROS | responsive | able to grow in the presence of up to 1000 nM elf18
